Earlier results, collected in publication PMC8843100, “Development of newly synthesised quinazolinone-based CDK2 inhibitors with potent efficacy against melanoma” (Journal of Enzyme Inhibition and Medicinal Chemistry, 2022).

Tested on: cyclin-dependent kinase2
Parameters: method as in PMID 11354366
Conditions: CDK2; cited from earlier work

CC(C)(C)Nc1nc(C(F)(F)F)nc2ccc(-c3cccc(N)c3)cc12 [DIN-234325]
IC50: 600 ± 100 nM
